Patent publication US4203989A, “Anti-diarrheal diaryl-(1-azabicyclo(2.2.2)octan-2-yl)-alkanols and related compounds” (G. D. Searle & Co., priority 1979, dated 1980)

What follows are compounds tested on gastrointestinal motility (assay: Mouse Cecal Test (inhibition of gastrointestinal motility, charcoal in cecum)). Settings: IG (oral), 30 min before oral charcoal, cecum examined 3.5 h after charcoal, all-or-none, logistic method of Berkson, read-out: ED50 ± S.E. (median effective dose).
Format: in vivo, mouse (male Charles River mice)
Procedure: The method used for this assay is a modification of the techniques previously described by Macht and Barb-Gose, J. Amer. Pharm. Ass., 20, 558 (1931), and Janssen and Jageneau, J. Pharm. Pharmacol., 9, 381 (1957). Details are as follows:
A group of six, male Charles River mice weighing 20-25 g. which have been previously fasted for 24 hours are pretreated with the test compounds administered orally as a solution in water or suspended in 0.5% methyl cellulose. A constant volume of 10 ml./kg. is employed. Thirty minutes following administration of the test compounds, the animals are given a single oral dose of charcoal which consists of 0.2 ml. per mouse of 10% charcoal suspended in 1.0% methyl cellulose. Three and a half hours after charcoal administration, the animals are sacrificed and the cecum examined for the absence or presence of charcoal on an all-or-none basis.
The median effective dose (ED50) is then calculated for each compound using the logistic method of Berkson (1953).

Compared with Cl.OC1(C(CC2CC3CCN2CC3)(c2ccccc2)c2ccccc2)CCCC1 (centres unmarked) [1-[2-(1-azabicyclo[2.2.2]octan-2-yl)-1,1-diphenylethyl] cyclopentanol hydrochloride], OC1(C(CC2CC3CCN2CC3)(c2ccccc2)c2ccccc2)CCCC1 (centres unmarked) [1-[2-(1-azabicyclo[2.2.2]octan-2-yl)-1,1-diphenylethyl] cyclopentanol] is 4.3-fold higher in ED50: 1.78 ± 0.83 mg/kg for the first, 7.61 ± 2.23 mg/kg for the second.

First: CC(C)(O)C(CC1CC2CCN1CC2)(c1ccccc1)c1ccccc1 (stereo not drawn) [Alpha, alpha-dimethyl-beta, beta-diphenyl-1-azabicyclo [2.2.2]octane-2-propanol]
Second: OCCC(CC1CC2CCN1CC2)(c1ccccc1)c1ccccc1 (centres unmarked) [Gamma, gamma-diphenyl-1-azabicyclo[2.2.2]octane-2-butanol]
The ED50 of the first is 4-fold lower: 1.6 ± 0.28 mg/kg for the first, 6.39 ± 2.09 mg/kg for the second.

Compound Cl.OCCC(CC1CC2CCN1CC2)(c1ccccc1)c1ccccc1 (centres unmarked) [gamma, gamma-diphenyl-1-azabicyclo[2.2.2]octane-2-butanol hydrochloride] has an ED50 of 1.2 ± 0.25 mg/kg.
